Columns and labels:
[1] = target: T1, type VI-S porcine pancreatic lipase (Sus scrofa, UniProt P00591); experiment: Pancreatic lipase assay (pH-stat titration, triolein substrate); format: biochemical; set-up: Ymax: unit not given here; conditions: for Ymax / k: 7.0 nM lipase, 700 nM inhibitor, pH 8.0; for Ymax: Ymax of the fit Y=Ymax*(1-exp(-k*X)); for k: k fitted for the 12.5 min after inhibitor addition, Y=Ymax*(1-exp(-k*X)); for inhibition at 0.7 µM: 12.5 min
T1 construct: purchased Sigma type VI-S (catalogue number not given)
T1 sequence (P00591 1-450): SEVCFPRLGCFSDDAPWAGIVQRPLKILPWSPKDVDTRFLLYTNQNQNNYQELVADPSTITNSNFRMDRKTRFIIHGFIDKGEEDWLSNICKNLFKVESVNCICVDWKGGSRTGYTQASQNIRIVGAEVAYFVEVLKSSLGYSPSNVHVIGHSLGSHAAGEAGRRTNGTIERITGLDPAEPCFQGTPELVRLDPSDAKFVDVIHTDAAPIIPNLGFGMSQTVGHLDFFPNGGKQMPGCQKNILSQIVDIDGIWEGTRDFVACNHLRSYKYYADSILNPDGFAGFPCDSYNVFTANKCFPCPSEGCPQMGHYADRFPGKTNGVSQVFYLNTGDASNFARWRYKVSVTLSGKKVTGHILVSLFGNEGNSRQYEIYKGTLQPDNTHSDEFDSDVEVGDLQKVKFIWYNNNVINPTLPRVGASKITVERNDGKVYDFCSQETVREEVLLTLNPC
Protocol: The use of a pancreatic lipase assay has been described in the literature (Hadvary, P. et al. Biochem. J. (1988) 256: 357-361; Hadvary, P. et al. Biochem. J. (1991) 266:2021-2027). Pancreatic lipase activity was measured using a 718 Stat Titrino (Brinkmann) programmed to maintain a pH of 8.0 using 0.1 N NaOH. The substrate mixture (pH 8) contained 1 mM taurochenodeoxycholate (Sigma), 9 mM taurodeoxycholate (Sigma), 0.1 mM cholesterol (Sigma), 1 mM phosphatidylcholine (Sigma), 1.5% BSA, 2 mM Tris base, 100 mM NaCl, 10 mM CaCl2, and 3% triolein (Sigma). The mixture (5 mL) was emulsified via sonication at room temperature, and added to the titration vessel with rapid stirring. The Stat Titrino was turned on and lipase (7.0 nM type VI-S porcine pancreatic lipase (Sigma) dissolved in PBS) was added to the vessel. After 10 min, inhibitor (700 nM dissolved in 100% DMSO) was added and the reaction continued for an additional 12.5 min. The k values were determined for the 12.5 min after the addition of the inhibitor using a one phase exponential association equation, Y=Ymax*(1−exp(−k*X)), k values for lipase alone were 0.0004±0.0001 sec. The k values for compounds disclosed herein are >0.0004±0.0001 sec.

In the case of `CCCCCCCCOC(=O)c1sc2nc(OCCCCCCCC)oc(=O)c2c1C` [Entry 9, 5-Methyl-2-octyloxy-4-oxo-4H-thieno[2,3-d][1,3]oxazine-6-carboxylic acid octyl ester], the Ymax [1] is reported as 0.286, the k [1] is reported as 0.924 10-3.s-1 and the melting point is reported as 58.5 to 60.2 °C.

With `CCCCCCCCOC(=O)c1sc2nc(OC(C)C)oc(=O)c2c1C` [Entry 12, 2-iso-Propoxy-5-methyl-4-oxo-4H-thieno[2,3-d][1,3]oxazine-6-carboxylic acid octyl ester] the k [1] was 0.438 10-3.s-1 and the melting point was 47.5 to 48 °C.

In the case of `CCCCCCCCNc1nc2sc(C(=O)OCc3ccccc3)c(C)c2c(=O)o1` [Entry 16, 5-Methyl-2-octylamino-4-oxo-4H-thieno[2,3-d][1,3]oxazine-6-carboxylic acid benzyl ester], the k [1] is reported as 1.711 10-3.s-1 and the melting point is reported as 153.5 to 154 °C.

For `CCCCCCCCNC(=O)c1sc2nc(NCCCCCCCC)oc(=O)c2c1C` [Entry 18, 5-Methyl-2-octylamino-4-oxo-4H-thieno[2,3-d][1,3]oxazine-6-carboxylic acid octylamide], the k [1] was 1.036 10-3.s-1, the inhibition at 0.7 µM [1] was 18% and the melting point was 152 to 152.8 °C.

In the case of `CCCCCCCCNc1nc2sc(C(=O)NCc3ccncc3)c(C)c2c(=O)o1` [Entry 55, 5-Methyl-2-octylamino-4-oxo-4H-thieno[2,3-d][1,3]oxazine-6-carboxylic acid (pyridin-4-ylmethyl)-amide], the k [1] is reported as 0.754 10-3.s-1.

In the case of `CCCCCCCCNc1nc2sc(C(=O)OCc3ccccc3)c(C)c2c(=O)s1` [Entry 56, 5-Methyl-2-octylamino-4-oxo-4H-thieno[2,3-d][1,3]thiazine-6-carboxylic acid benzyl ester], the k [1] is reported as 0.114 10-3.s-1.

For `CCCCCCCCN(CCCCCCCC)c1nc2sc(C(=O)OCc3ccccc3)c(C)c2c(=O)o1` [Entry 60, 2-Dioctylamino-5-methyl-4-oxo-4H-thieno[2,3-d][1,3]oxazine-6-carboxylic acid benzyl ester], the k [1] was 0.013 10-3.s-1.

In the case of `CCCCCCCCNc1nc2sc(C(=O)N3CCN(CC(=O)NC(C)C)CC3)c(C)c2c(=O)o1` [Entry 64, N-Isopropyl-2-(4-(5-methyl-2-octylamino-4-oxo-4H-thieno(2,3-d)(1,3)oxazine-6-carbonyl)-piperazin-1-yl)-acetamide], the Ymax [1] is reported as 3.917 and the k [1] is reported as 0.176 10-3.s-1.

For `CCCCCCCCCCCc1nc2sc(CCCCCCC)cc2c(=O)o1` [Entry 67, 6-Heptyl-2-undecyl-thieno[2,3-d][1,3]oxazin-4-one], the Ymax [1] was 10.973 and the k [1] was 0.064 10-3.s-1.

For `CCCCCCCCOc1nc2sc(CCCCCCC)cc2c(=O)o1` [Entry 68, 6-Heptyl-2-octyloxy-thieno[2,3-d][1,3]oxazin-4-one], the Ymax [1] was 0.020, the k [1] was 5.825 10-3.s-1 and the inhibition at 0.7 µM [1] was 78.9%.

In the case of `CCCCCCCCNc1nc2sc(C(=O)NCCOc3ccccc3)c(C)c2c(=O)o1` [Entry 70, 5-Methyl-2-octylamino-4-oxo-4H-thieno(2,3-d)(1,3)oxazine-6-carboxylic acid (2-phenoxy-ethyl)-amide], the Ymax [1] is reported as 0.140 and the k [1] is reported as 1.999 10-3.s-1.

For `CCCCCCC(C)Nc1nc2sc(C(=O)OCc3ccccc3)c(C)c2c(=O)o1` (stereo not drawn) [Entry 71, 5-Methyl-2-(1-methylheptylamino)-4-oxo-4H-thieno[2,3-d][1,3]oxazine-6-carboxylic acid benzyl ester], the Ymax [1] was 14.657 and the k [1] was 0.086 10-3.s-1.

For `CCCCCCCCNc1nc2sc(C(=O)NCCOC)c(C)c2c(=O)o1` [Entry 72, 5-Methyl-2-octylamino-4-oxo-4H-thieno(2,3-d)(1,3)oxazine-6-carboxylic acid (2-methoxy-ethyl)-amide], the Ymax [1] was 0.185 and the k [1] was 1.102 10-3.s-1.

In the case of `CCCCCCCCNc1nc2sc(C(=O)NCCCOC)c(C)c2c(=O)o1` [Entry 73, 5-Methyl-2-octylamino-4-oxo-4H-thieno(2,3-d)(1,3)oxazine-6-carboxylic acid (3-methoxy-propyl)-amide], the Ymax [1] is reported as 1.594 and the k [1] is reported as 0.794 10-3.s-1.

In the case of `CCCCCCCCOc1nc2sc(CCCC)cc2c(=O)o1` [Entry 75, 6-Butyl-2-octyloxy-thieno[2,3-d][1,3]oxazin-4-one], the Ymax [1] is reported as 0.054 and the k [1] is reported as 2.219 10-3.s-1.

In the case of `CCCCCCCCOc1nc2sc(C(C)C)cc2c(=O)o1` [Entry 76, 6-Isopropyl-2-octyloxy-thieno[2,3-d][1,3]oxazin-4-one], the Ymax [1] is reported as 0.161 and the k [1] is reported as 1.288 10-3.s-1.

For `CCCCCCCCOc1nc2sc(Cc3ccccc3)cc2c(=O)o1` [Entry 77, 6-Benzyl-2-octyloxythieno[2,3-d][1,3]oxazin-4-one], the Ymax [1] was 0.482 and the k [1] was 0.392 10-3.s-1.

In the case of `CCCCCCCCOc1nc2sc(C(C)CC(C)(C)C)cc2c(=O)o1` (stereo not drawn) [Entry 78, 2-Octyloxy-6-(1,3,3-trimethyl-butyl)-thieno[2,3-d][1,3]oxazin-4-one], the Ymax [1] is reported as 0.126, the k [1] is reported as 1.315 10-3.s-1 and the inhibition at 0.7 µM [1] is reported as 17.9%.

In the case of `CCCCCCCCOc1nc2sc(C(C)CCCC(C)(C)OC)cc2c(=O)o1` (stereo not drawn) [Entry 83, 6-(5-Methoxy-1,5-dimethyl-hexyl)-2-octyloxy-thieno[2,3-d][1,3]oxazin-4-one], the inhibition at 0.7 µM [1] is reported as 36.9%.

With `CCCCCCCCOc1nc2sc(CCCCCC)cc2c(=O)o1` [Entry 84, 6-Hexyl-2-octyloxythieno[2,3-d][1,3]oxazin-4-one] the Ymax [1] was 0.029, the k [1] was 3.033 10-3.s-1 and the inhibition at 0.7 µM [1] was 71.3%.

In the case of `CCCCCCCCOc1nc2sc(CCCCCCCC)cc2c(=O)o1` [Entry 85, 6-Octyl-2-octyloxy-thieno[2,3-d][1,3]oxazin-4-one], the inhibition at 0.7 µM [1] is reported as 96.1%.

In the case of `CCCCCCCCCCc1cc2c(=O)oc(OCCCCCCCC)nc2s1` [Entry 86, 6-Decyl-2-octyloxythieno[2,3-d][1,3]oxazin-4-one], the inhibition at 0.7 µM [1] is reported as 73.6%.

`CCCCCCCCCCCCc1cc2c(=O)oc(OCCCCCCCC)nc2s1` [Entry 88, 6-Dodecyl-2-octyloxy-thieno[2,3-d][1,3]oxazin-4-one] gave an inhibition at 0.7 µM [1] of 74.2%.

In the case of `CCCCCCC(C)Oc1nc2sc(C(=O)OCc3ccccc3)c(C)c2c(=O)o1` (stereo not drawn) [Entry 89, 5-Methyl-2-(1-methylheptyloxy)-4-oxo-4H-thieno[2,3-d][1,3]oxazine-6-carboxylic acid benzyl ester], the inhibition at 0.7 µM [1] is reported as -14.1%.

With `CCCCCCCCCCc1cc2c(=O)oc(OC(C)CCCCCC)nc2s1` (stereo not drawn) [Entry 90, 6-Decyl-2-(1-methylheptyloxy)thieno[2,3-d][1,3]oxazin-4-one] the inhibition at 0.7 µM [1] was 15%.

For `CCCCCCCc1cc2c(=O)oc(OC(C)CCCCCC)nc2s1` (stereo not drawn) [Entry 91, 6-Heptyl-2-(1-methylheptyloxy)thieno[2,3-d][1,3]oxazin-4-one], the inhibition at 0.7 µM [1] was 12.4%.

Compound `CCCCCCCCc1cc2c(=O)oc(OCCCCCC)nc2s1` [Entry 94] has an inhibition at 0.7 µM [1] of 83%.

For `CCCCCCCCc1cc2c(=O)oc(OCCCC)nc2s1` [Entry 95], the inhibition at 0.7 µM [1] was 60.3%.

In the case of `CCCCCCCCCCc1cc2c(=O)oc(OCCOC)nc2s1` [Entry 96, 6-Decyl-2-(2-methoxy-ethoxy)-thieno[2,3-d][1,3]oxazin-4-one], the melting point is reported as 38 to 41 °C.

`CCCCCCCCCCc1cc2c(=O)oc(Oc3ccc(CCCC)cc3)nc2s1` [Entry 102, 2-(4-Butyl-phenoxy)-6-decyl-thieno[2,3-d][1,3]oxazin-4-one] showed a melting point of 55 to 58 °C.
